In publication PMC7714403 (JCI Insight, 2020):

Assays:
AurB = AurB (Homo sapiens, UniProt Q96GD4); assay: KiNativ, OCI cells live cell; format: cell-based; conditions: 2 h, labeling site Lys1, peptide […]
PIP4K2B = PIP4K2B (Homo sapiens, UniProt P78356); assay: KiNativ, OCI cells live cell; format: cell-based; conditions: 2 h, labeling site ATP, peptide […]
HCK = HCK (Homo sapiens, UniProt P08631); assay: KiNativ, OCI cells live cell; format: cell-based; conditions: 2 h, labeling site Activation Loop, peptide […]
[1] = test system: MSK1 domain1, MSK2 domain1; assay: KiNativ, OCI cells live cell; format: cell-based, human; conditions: labeling site ATP Loop, peptide VLGTGAYGKVFLVR
MOLM13-Luc+ cells = assay: MOLM13-Luc+ xenograft model; format: in vivo, NSG mice; conditions: 3 weeks
Description: Engraftment and growth of leukemic cells were monitored by noninvasive bioluminescence imaging in cell line xenograft models, as previously done ([47]). Details on the cell engraftment and dosing in mouse models are provided in the Supplemental Methods.
Cell viability of primary samples
HS5-GFP human bone marrow stromal cells were plated and cultured for 72 hours to near confluence.
MOLM13 cells were then seeded onto HS5-GFP cells to establish a co-culture. Twenty-four hours later, cells were treated with increasing concentrations of drug for an additional 72 hours. MOLM13 and HS5-GFP cells were then separated and MTT assay s were performed for cell viability assessment of each cell population.
For murine or human primary AML cells, 100,000 cells/well were plated in a 96-well plate and treated with increasing concentrations of drug. Cell viability, via trypan blue, was measured every 24 hours. If the viability fell below 50% or at 72 hours of treatment, whichever came earlier, cell viability of each plate was measured via CellTiter-Glo. Primary human AML cells were obtained from the OSUCCC Leukemia Tissue Bank Shared […]
Primary AML samples were analyzed by targeted gene sequencing of 80 genes, as previously described (1). Samples were pooled and analyzed on a MiSeq system using the Illuminia MiSeq Reagent Kit v3. […]
Luc+ or MOLM13-Res -Luc+ cells, 0.5 million OCI-AML3 -Luc+ cells, and 10,000 Ba/F3-FLT3-ITD/F691L-GFP+ cells. Weekly tumor engraftment of cell line xenograft models were assessed after injection of D-luciferin (150mg/kg i.p.; Gold Biotechnology, Inc, St. Louis, MO) on Xenogen IVIS-200 imaging system (Perkin Elmer, Waltham, MA) or GFP monitoring by peripheral blood via BD LSR II flow cytometer (BD Biosciences, San Jose, CA). Signal intensity was analyzed using Living Image Software (PerkinElmer) or FlowJo v10.0.08 software (FlowJo, LLC, Ashland, OR). […]
At indicated time points, cells were collected and washed with PBS. CD11b expression was measured using anti-CD11b -APC antibody (BioLegend, San Diego, CA). […]

PIP5K3 = PIP5K3 (Homo sapiens, UniProt Q9Y2I7); assay: KiNativ, OCI cells live cell; format: cell-based; conditions: labeling site ATP, peptide GGKSGAAFYATEDDRFILK
PIP5K3, sequence (Q9Y2I7 whole entry): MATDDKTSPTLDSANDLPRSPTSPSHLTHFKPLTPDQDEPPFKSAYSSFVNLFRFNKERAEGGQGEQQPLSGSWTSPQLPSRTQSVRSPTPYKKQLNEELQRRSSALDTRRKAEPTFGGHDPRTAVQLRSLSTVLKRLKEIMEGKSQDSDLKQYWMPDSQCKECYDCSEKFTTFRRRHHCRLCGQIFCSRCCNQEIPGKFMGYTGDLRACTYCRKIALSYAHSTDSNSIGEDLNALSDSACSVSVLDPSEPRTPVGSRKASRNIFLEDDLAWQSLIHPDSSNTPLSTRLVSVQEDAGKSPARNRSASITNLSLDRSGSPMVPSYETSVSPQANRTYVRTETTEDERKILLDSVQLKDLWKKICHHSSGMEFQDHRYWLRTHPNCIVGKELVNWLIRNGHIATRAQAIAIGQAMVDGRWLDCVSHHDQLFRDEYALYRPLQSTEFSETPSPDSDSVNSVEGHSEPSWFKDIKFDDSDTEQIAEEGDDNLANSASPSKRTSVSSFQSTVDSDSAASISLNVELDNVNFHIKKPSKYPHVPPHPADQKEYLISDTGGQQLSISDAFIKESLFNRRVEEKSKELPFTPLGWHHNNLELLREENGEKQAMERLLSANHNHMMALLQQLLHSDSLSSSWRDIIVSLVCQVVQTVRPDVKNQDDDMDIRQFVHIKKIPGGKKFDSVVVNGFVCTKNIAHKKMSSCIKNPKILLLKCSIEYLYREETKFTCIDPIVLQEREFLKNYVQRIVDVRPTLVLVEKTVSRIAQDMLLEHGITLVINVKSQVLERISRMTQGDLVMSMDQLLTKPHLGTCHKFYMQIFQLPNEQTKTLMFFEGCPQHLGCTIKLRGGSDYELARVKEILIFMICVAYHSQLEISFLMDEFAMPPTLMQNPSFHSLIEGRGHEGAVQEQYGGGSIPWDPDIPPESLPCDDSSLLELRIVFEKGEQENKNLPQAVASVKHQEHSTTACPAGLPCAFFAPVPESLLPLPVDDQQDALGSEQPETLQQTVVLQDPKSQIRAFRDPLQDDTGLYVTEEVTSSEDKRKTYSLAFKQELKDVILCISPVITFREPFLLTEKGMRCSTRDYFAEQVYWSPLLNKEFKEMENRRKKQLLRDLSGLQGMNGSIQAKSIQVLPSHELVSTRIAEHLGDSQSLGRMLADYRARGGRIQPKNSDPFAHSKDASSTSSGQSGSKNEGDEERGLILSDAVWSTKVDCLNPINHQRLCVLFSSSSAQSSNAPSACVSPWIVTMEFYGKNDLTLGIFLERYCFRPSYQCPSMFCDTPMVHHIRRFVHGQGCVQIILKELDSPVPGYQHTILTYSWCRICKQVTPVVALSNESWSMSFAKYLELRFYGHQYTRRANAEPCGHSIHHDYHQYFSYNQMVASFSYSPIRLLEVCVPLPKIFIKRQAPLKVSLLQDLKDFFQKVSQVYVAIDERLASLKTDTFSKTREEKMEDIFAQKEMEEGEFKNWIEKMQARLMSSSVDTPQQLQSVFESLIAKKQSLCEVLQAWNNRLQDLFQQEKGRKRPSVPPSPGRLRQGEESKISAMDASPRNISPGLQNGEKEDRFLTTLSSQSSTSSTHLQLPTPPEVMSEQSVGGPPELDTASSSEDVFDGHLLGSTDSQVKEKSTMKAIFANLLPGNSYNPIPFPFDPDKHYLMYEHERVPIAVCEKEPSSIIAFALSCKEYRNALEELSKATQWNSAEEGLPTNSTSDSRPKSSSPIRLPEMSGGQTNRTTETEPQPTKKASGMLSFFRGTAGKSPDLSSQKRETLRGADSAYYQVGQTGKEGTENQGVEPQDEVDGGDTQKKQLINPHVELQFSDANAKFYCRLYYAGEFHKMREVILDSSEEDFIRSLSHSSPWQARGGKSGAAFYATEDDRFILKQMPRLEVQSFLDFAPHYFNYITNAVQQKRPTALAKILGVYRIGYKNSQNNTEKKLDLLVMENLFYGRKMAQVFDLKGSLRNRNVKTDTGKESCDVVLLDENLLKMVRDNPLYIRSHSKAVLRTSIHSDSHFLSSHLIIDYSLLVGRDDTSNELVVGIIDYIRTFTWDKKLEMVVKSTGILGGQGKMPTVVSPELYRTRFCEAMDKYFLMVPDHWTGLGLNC

MST3 = MST3 (Homo sapiens, UniProt Q9Y6E0); assay: KiNativ, OCI cells live cell; format: cell-based; conditions: labeling site Lys2, peptide DIKAANVLLSEHGEVK
BTK = BTK (Homo sapiens, UniProt Q06187); assay: KdELECT binding assay; design: purchased Eurofins DiscoverX
BTK, sequence (Q06187 whole entry): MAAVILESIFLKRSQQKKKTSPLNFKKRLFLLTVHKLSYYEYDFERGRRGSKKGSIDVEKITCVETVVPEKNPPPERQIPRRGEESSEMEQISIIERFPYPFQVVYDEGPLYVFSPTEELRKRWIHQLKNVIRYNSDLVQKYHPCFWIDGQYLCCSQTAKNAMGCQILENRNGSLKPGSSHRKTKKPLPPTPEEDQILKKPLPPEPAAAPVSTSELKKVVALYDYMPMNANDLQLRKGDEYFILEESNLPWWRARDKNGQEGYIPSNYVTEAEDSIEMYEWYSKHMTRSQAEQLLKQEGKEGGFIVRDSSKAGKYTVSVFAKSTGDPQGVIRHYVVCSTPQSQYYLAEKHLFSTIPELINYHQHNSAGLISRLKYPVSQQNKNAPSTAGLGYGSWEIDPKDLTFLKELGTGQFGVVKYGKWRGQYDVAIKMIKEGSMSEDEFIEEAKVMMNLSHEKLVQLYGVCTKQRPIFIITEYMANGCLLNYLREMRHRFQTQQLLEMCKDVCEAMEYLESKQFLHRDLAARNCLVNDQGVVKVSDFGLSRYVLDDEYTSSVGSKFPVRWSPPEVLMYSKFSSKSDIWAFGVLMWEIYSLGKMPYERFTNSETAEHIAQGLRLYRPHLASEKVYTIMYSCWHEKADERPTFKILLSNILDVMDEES

PIK3CD = PIK3CD (Homo sapiens, UniProt O00329); assay: KiNativ, OCI cells live cell; format: cell-based; conditions: 2 h, labeling site ATP, peptide […]
FLT3 D835V = biological target: T1, FLT3 D835V (Homo sapiens, UniProt P36888, D835V); assay: KdELECT binding assay
T1 construct: purchased Eurofins DiscoverX

NEK7 = NEK7 (Homo sapiens, UniProt Q8TDX7); assay: KiNativ, OCI cells live cell; format: cell-based; conditions: 2 h, labeling site Lys1, peptide […]
MAP2K1 = MAP2K1 (Homo sapiens, UniProt Q02750); assay: KiNativ, OCI cells live cell; format: cell-based; conditions: 2 h, labeling site Lys2, peptide […]
GSK3B = GSK3B (Homo sapiens, UniProt P49841); assay: KiNativ, OCI cells live cell; format: cell-based; conditions: 2 h, labeling site Lys2, peptide […]
PI4KB = PI4KB (Homo sapiens, UniProt Q9UBF8); assay: KiNativ, OCI cells live cell; format: cell-based; conditions: 2 h, labeling site ATP
PI4KB, sequence (Q9UBF8 whole entry): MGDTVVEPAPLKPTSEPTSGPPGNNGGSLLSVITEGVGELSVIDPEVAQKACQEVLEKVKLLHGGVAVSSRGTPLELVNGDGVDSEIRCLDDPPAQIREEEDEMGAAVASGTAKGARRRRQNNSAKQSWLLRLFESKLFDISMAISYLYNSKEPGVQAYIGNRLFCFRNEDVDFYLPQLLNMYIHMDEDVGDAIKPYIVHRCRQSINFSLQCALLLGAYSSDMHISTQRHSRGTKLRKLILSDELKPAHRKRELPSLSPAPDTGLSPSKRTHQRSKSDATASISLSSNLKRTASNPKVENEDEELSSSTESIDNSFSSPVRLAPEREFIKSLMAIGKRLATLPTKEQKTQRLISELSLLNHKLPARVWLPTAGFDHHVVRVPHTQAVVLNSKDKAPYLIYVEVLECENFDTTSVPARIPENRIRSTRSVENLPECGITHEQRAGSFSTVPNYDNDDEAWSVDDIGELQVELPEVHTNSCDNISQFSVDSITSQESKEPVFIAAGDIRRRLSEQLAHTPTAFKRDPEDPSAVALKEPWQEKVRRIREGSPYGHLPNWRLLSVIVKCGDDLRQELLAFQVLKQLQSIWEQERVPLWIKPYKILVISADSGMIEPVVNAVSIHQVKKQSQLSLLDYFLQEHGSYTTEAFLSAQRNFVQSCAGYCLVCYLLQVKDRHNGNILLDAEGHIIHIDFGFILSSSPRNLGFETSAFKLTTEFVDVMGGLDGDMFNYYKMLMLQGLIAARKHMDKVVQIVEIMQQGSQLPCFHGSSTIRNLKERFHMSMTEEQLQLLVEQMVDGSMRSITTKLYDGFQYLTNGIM

CDK9 = CDK9 (Homo sapiens, UniProt P50750); assay: KiNativ, OCI cells live cell; format: cell-based; conditions: 2 h
CDK9, sequence (P50750 whole entry): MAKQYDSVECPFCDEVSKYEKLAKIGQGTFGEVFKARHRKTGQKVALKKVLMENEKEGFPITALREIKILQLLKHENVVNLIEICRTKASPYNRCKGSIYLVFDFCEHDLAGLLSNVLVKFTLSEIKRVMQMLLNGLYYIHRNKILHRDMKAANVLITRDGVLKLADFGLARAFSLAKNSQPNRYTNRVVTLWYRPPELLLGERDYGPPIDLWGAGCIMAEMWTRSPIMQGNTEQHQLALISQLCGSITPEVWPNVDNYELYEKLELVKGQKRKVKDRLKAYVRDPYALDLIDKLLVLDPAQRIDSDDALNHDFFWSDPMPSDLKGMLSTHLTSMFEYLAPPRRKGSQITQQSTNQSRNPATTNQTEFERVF
CDK9, sequence (O60563 whole entry partner): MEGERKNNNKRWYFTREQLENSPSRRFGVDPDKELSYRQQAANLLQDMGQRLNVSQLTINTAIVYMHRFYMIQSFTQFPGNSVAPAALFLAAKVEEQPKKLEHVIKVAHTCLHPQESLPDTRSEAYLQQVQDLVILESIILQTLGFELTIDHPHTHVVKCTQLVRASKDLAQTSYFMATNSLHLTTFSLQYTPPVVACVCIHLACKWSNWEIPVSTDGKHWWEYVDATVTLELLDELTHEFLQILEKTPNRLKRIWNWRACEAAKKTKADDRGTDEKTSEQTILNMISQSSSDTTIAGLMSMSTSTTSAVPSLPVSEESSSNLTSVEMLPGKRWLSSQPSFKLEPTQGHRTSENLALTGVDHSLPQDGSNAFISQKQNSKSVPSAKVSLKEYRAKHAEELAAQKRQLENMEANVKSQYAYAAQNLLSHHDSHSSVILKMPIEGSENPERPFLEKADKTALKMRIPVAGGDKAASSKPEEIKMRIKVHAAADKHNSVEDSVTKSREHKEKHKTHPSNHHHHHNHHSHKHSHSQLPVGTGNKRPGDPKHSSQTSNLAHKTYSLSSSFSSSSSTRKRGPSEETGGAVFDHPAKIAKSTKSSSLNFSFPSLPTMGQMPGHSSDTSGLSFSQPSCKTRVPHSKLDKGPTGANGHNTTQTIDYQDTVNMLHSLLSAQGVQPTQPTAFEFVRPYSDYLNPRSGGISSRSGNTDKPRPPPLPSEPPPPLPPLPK

AurB, sequence (Q96GD4 whole entry): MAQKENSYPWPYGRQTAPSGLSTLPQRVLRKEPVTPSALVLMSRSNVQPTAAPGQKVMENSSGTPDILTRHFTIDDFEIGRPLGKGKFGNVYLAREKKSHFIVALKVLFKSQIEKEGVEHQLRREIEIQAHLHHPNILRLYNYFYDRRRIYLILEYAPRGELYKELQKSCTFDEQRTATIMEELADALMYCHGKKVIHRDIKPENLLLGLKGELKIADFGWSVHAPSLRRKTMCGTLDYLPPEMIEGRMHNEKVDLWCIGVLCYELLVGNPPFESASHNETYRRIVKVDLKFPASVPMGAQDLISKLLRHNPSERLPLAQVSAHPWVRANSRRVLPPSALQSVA

Q: Which results are given for CN1CCN(Cc2ccc(Nc3ncc(Cl)c(Nc4ccccc4S(=O)(=O)N(C)C)n3)cc2)CC1 [TP-0903]?
A: inhibition at 0.1 µM (AurB): 83%; inhibition at 0.1 µM (PIP4K2B): -24.4%; inhibition at 0.1 µM (HCK): -3.8%; Inhibition [1]: 11.0%; Survival prolonged compared with vehicle (MOLM13-Luc+ cells; 60 mg/kg 5 days a week): 13 days; Survival prolonged compared with vehicle (MOLM13-Luc+ cells; 60 mg/kg once daily continuously): 17 days; Leukemia outgrowth (bioluminescence) (MOLM13-Luc+ cells; 60 mg/kg): suppressed leukemia outgrowth; Inhibition (PIP5K3): 18.4%; Inhibition (MST3): 35.2%; Kd (BTK): 13 nM; inhibition at 0.1 µM (PIK3CD): -5.6%; Kd (FLT3 D835V): 2.1 nM; inhibition at 0.1 µM (NEK7): -38.8%; inhibition at 0.1 µM (MAP2K1): 14.7%; inhibition at 0.1 µM (GSK3B): 32.3%; inhibition at 0.1 µM (PI4KB; peptide LLSVIVKCGDDLRQELLAFQVLK): -13.1%; inhibition at 0.1 µM (PI4KB; peptide VPHTQAVVLNSKDK): -23.3%; inhibition at 0.1 µM (CDK9; labeling site ATP Loop, peptide IGQGTFGEVFKAR): -30.7%; inhibition at 0.1 µM (CDK9; labeling site Lys2, peptide DMKAANVLITR): 32.9%
